In ChEMBL document CHEMBL1133242, “Selective alpha1a adrenergic receptor antagonists based on 4-aryl-3,4-dihydropyridine-2-ones” (Bioorg Med Chem Lett, 2000):

What was measured:
[1] = molecular target: T1, Alpha-1A adrenergic receptor (Homo sapiens, UniProt P35348); assay: In vitro antagonism at Alpha-1A adrenergic receptor; type: functional
T1 sequence (P35348 whole entry): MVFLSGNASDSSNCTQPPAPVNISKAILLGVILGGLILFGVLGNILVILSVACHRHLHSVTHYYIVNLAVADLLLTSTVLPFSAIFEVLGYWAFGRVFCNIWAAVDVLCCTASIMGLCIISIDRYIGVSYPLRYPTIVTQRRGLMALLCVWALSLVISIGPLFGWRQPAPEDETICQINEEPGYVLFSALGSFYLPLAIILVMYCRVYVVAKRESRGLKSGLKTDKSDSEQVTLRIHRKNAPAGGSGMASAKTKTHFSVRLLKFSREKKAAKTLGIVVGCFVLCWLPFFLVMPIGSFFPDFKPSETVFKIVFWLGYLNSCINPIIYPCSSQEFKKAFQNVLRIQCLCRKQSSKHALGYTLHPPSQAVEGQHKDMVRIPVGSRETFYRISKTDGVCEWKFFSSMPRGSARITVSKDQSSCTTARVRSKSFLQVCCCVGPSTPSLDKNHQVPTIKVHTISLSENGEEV

[2] = molecular target: T2, Alpha-1B adrenergic receptor (Homo sapiens, UniProt P35368); assay: In vitro antagonism at Alpha-1B adrenergic receptor; type: functional
T2 sequence (P35368 whole entry): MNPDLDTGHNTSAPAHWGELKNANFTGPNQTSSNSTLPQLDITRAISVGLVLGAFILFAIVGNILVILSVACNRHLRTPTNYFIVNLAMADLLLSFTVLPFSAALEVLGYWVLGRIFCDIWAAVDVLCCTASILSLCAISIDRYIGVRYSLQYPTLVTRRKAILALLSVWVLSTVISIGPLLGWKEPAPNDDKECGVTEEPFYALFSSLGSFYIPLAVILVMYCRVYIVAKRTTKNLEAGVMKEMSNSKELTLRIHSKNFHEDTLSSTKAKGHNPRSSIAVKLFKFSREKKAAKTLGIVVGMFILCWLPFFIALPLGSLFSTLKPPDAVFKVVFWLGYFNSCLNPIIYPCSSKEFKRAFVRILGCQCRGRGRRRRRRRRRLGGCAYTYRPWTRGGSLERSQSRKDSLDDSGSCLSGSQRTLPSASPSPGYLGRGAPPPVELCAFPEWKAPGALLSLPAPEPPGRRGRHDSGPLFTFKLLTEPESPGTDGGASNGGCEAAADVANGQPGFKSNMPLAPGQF

[3] = molecular target: T3, Alpha-1D adrenergic receptor (Homo sapiens, UniProt P25100); assay: In vitro antagonism at Alpha-1D adrenergic receptor; type: functional
T3 sequence (P25100 whole entry): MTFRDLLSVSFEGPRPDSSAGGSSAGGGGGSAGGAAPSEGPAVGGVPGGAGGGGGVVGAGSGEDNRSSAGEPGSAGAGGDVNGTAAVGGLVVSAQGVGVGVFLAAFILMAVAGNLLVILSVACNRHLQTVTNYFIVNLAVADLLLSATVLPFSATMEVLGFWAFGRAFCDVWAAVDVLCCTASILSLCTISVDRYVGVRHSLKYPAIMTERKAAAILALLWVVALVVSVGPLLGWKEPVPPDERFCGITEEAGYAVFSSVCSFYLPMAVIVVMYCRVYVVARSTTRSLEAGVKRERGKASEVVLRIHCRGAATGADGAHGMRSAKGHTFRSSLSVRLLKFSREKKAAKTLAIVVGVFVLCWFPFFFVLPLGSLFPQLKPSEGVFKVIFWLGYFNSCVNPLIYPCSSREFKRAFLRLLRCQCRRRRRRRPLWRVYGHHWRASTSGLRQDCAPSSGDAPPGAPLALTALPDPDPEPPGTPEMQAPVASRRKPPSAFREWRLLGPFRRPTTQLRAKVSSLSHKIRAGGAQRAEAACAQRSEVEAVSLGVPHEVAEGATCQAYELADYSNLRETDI

[4] = t1/2 value in rat; type: ADME, organism-based; conditions: in vivo
[5] = Percent bioavailability in dog; type: ADME, organism-based, Canis lupus familiaris; conditions: in vivo, read-out: Bioavailabiility
Rattus norvegicus [6] = organism: Rattus norvegicus; assay: Dose required to inhibit the prostate contractile response by 50% after challenge with selective alpha-1a agonist A61603 and duration of action was 2.5h in an in situ rat prostate model; type: functional, Prostate gland
[7] = molecular target: T4, Alpha-2A adrenergic receptor (Homo sapiens, UniProt P08913); assay: […] inhibitory effect against Alpha-2A adrenergic receptor
T4 sequence (P08913 whole entry): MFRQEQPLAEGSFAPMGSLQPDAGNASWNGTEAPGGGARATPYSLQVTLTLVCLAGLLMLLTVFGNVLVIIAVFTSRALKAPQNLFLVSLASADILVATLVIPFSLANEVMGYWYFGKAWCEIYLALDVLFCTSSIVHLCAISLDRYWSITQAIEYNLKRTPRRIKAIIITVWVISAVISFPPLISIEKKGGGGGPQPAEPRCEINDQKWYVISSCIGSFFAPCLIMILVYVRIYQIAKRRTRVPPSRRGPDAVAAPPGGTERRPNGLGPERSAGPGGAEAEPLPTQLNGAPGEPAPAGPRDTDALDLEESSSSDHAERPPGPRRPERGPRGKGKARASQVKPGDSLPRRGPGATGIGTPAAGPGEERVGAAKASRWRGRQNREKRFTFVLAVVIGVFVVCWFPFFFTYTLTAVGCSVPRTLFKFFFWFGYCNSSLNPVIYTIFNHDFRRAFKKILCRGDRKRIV

[8] = molecular target: T5, Alpha-2C adrenergic receptor (Homo sapiens, UniProt P18825); assay: […] inhibitory effect against Alpha-2C adrenergic receptor
T5 sequence (P18825 whole entry): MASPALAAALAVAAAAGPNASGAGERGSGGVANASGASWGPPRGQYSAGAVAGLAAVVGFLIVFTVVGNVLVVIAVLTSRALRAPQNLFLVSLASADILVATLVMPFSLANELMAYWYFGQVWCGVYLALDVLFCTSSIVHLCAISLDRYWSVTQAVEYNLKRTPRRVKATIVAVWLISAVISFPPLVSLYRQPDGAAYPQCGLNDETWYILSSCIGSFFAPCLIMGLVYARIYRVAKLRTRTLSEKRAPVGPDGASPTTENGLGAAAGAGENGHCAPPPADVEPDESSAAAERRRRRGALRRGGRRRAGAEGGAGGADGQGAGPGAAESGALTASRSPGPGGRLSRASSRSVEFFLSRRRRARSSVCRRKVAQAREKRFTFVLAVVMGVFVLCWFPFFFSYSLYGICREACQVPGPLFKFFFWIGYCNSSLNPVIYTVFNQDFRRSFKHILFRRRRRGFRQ

Histamine H1 receptor = Histamine H1 receptor (Homo sapiens, UniProt P35367); assay: Selectivity screen against human Histamine H1 receptor
Chain of Histamine H1 receptor (P35367 whole entry): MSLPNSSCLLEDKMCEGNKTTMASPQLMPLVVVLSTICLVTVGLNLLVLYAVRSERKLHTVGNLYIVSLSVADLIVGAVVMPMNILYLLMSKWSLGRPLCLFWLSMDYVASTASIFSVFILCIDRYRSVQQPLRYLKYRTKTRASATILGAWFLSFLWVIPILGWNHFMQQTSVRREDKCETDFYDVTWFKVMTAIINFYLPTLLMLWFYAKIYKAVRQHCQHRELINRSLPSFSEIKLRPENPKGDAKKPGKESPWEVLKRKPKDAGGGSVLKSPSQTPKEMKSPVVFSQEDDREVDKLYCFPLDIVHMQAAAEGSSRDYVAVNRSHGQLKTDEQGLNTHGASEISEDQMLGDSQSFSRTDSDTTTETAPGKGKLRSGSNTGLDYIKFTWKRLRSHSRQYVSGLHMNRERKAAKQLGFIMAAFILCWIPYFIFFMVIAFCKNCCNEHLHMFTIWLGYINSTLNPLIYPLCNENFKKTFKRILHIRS

[9] = molecular target: T6, Alpha-2B adrenergic receptor (Homo sapiens, UniProt P18089); assay: […] inhibitory effect against alpha-2b Adrenergic receptor
T6 sequence (P18089 whole entry): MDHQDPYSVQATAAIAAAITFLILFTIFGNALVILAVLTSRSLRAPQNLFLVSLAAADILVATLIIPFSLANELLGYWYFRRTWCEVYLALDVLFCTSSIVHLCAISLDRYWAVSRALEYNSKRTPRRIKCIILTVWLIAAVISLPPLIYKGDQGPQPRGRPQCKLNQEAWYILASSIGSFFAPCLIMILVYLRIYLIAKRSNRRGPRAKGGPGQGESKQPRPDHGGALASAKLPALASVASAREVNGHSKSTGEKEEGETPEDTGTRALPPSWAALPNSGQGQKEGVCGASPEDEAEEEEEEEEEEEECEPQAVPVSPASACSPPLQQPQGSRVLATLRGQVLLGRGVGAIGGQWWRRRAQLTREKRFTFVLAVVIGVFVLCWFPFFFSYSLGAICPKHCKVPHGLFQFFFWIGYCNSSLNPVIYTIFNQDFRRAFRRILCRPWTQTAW

Rattus norvegicus [10] = organism: Rattus norvegicus; assay: Dose required to inhibit the prostate contractile response by 50% after challenge with selective alpha-1a agonist A61603 in an in situ rat prostate model; type: functional, Prostate gland
Rattus norvegicus [11] = organism: Rattus norvegicus; assay: Dose required to inhibit the prostate contractile response by 50% after challenge with selective alpha-1a agonist A61603 and duration of action was 1 hr in an in situ rat prostate model; type: functional, Prostate gland
Rattus norvegicus [12] = organism: Rattus norvegicus; assay: Dose required to inhibit the prostate contractile response by 50% after challenge with selective alpha-1a agonist A61603 and duration of action was 3.5h in an in situ rat prostate model; type: functional, Prostate gland
Rattus norvegicus [13] = organism: Rattus norvegicus; assay: Dose required to inhibit the prostate contractile response by 50% after challenge with selective alpha-1a agonist A61603 and duration of action was 4 hr in an in situ rat prostate model; type: functional, Prostate gland

SMILES | Ki [1] | Ki [2] | Ki [3] | half-life [4] | bioavailability [5] | AD50 (Rattus norvegicus [6]) | Ki [7] | Ki [8] | Ki (Histamine H1 receptor) | Ki [9] | AD50 (Rattus norvegicus [10]) | AD50 (Rattus norvegicus [11]) | AD50 (Rattus norvegicus [12]) | AD50 (Rattus norvegicus [13])
CC1=C(C(=O)NCCCN2CCC(c3ccccc3C#N)CC2)[C@@H](c2ccc(F)c(F)c2)CC(=O)N1 | 1 nM | 330 nM | 330 nM | – | – | – | – | – | – | – | – | – | – | –
CC1=C(C(=O)NCCCN2CCC(C#N)(c3ccccc3C#N)CC2)[C@@H](c2ccc(F)c(F)c2)CC(=O)N1 | 3.2 nM | > 2000 nM | > 5000 nM | – | – | – | – | – | – | – | – | – | – | –
CC1=C(C(=O)NCCCN2CCC(c3ccc(F)cc3C#N)CC2)[C@@H](c2ccc(F)c(F)c2)CC(=O)N1 | 0.2 nM | 100 nM | 150 nM | 4.8 h | 34% | 0.005 mg/kg | 1290 nM | 1480 nM | 58 nM | 145 nM | – | – | – | –
CC1=C(C(=O)NCCCN2CCC(C#N)(c3ccccn3)CC2)[C@@H](c2ccc(F)c(F)c2)CC(=O)N1C | – | > 2000 nM | > 5000 nM | – | – | – | – | – | – | – | – | – | – | –
CC1=C(C(=O)NCC(C)CN2CCC(C#N)(c3ccccn3)CC2)[C@@H](c2ccc(F)c(F)c2)CC(=O)N1 (some centres not stated) | 42 nM | > 2000 nM | > 5000 nM | – | – | – | – | – | – | – | – | – | – | –
CC1=C(C(=O)NCCCN2CCC(c3ccc(F)cc3)CC2)[C@@H](c2ccc(F)c(F)c2)CC(=O)N1 | 0.4 nM | 37 nM | 200 nM | – | – | – | 229 nM | 313 nM | 19 nM | 162 nM | 0.032 mg/kg | – | – | –
CC1=C(C(=O)NCCCN2CCC(C#N)(c3ccc(F)cc3)CC2)[C@@H](c2ccc(F)c(F)c2)CC(=O)N1 | 1.8 nM | 1040 nM | 1050 nM | – | – | – | – | – | 63 nM | – | – | – | – | –
CC1=C(C(=O)NCCCN2CCC(c3ccc(F)cc3)CC2)[C@@H](c2ccc(F)c(F)c2)CC(=O)N1C | 0.7 nM | 54 nM | 250 nM | – | – | – | – | – | – | – | – | – | – | –
CC1=C(C(=O)NCCCN2CCC(C#N)(c3ccc(F)cc3C#N)CC2)[C@@H](c2ccc(F)c(F)c2)CC(=O)N1 | 1.4 nM | > 2000 nM | > 5000 nM | – | – | – | 7850 nM | 4680 nM | 91 nM | 676 nM | – | – | – | –
CC1=C(C(=O)NCCCN2CCC(C#N)(c3ccc(F)cc3F)CC2)[C@@H](c2ccc(F)c(F)c2)CC(=O)N1C | 1.1 nM | 842 nM | 1160 nM | – | – | – | 3390 nM | 1910 nM | 302 nM | 955 nM | – | 0.029 mg/kg | – | –
CCOc1ccccc1OCCN[C@H](C)Cc1ccc(OC)c(S(N)(=O)=O)c1 [TAMSULOSIN] | – | – | – | – | – | – | – | – | – | – | – | – | 0.003 mg/kg | –
CC1=C(C(=O)NCCCN2CCC(C#N)(c3ccccc3C#N)CC2)[C@@H](c2ccc(F)c(F)c2)CC(=O)N1C | 13 nM | > 2000 nM | > 5000 nM | – | – | – | – | – | – | – | – | – | – | –
CC1=C(C(=O)NCCCN2CCC(C#N)(c3ccc(F)cc3)CC2)[C@@H](c2ccc(F)c(F)c2)CC(=O)N1C | 1.9 nM | 425 nM | 880 nM | – | – | – | 1860 nM | 1100 nM | 355 nM | 776 nM | 0.025 mg/kg | – | – | –
CC1=C(C(=O)NCCCN2CCC(c3ccc(F)cc3C#N)CC2)[C@@H](c2ccc(F)c(F)c2)CC(=O)N1C | 0.8 nM | 366 nM | 590 nM | 1.4 h | – | – | 4520 nM | 3850 nM | 398 nM | 288 nM | – | – | – | 0.009 mg/kg
CC1=C(C(=O)NCCCN2CCC(c3ccccc3C#N)CC2)[C@@H](c2ccc(F)c(F)c2)CC(=O)N1C | 3 nM | 1200 nM | 682 nM | – | – | – | – | – | – | – | – | – | – | –
CC1=C(C(=O)NCCCN2CCC(C#N)(c3ccc(F)cc3C#N)CC2)[C@@H](c2ccc(F)c(F)c2)CC(=O)N1C | 7 nM | > 2000 nM | > 5000 nM | – | – | – | 13600 nM | 6530 nM | 616 nM | 1760 nM | – | – | – | –
